One assay addresses JAK1 (Homo sapiens (Human), UniProt P23458). The experiment in a line: JAK Caliper Enzyme Assay at 1 mM ATP (JAK1). To be noted: Caliper assay at 1 mM ATP. The assay is classed as biochemical.
Another assay addresses JAK2 (Homo sapiens (Human), UniProt O60674). The experiment in a line: JAK Caliper Enzyme Assay at 1 mM ATP (JAK2). Format: biochemical. As to conditions: Caliper assay at 1 mM ATP.
Another assay has as its target JAK3 (Homo sapiens (Human), UniProt P52333). Kind of assay: JAK Caliper Enzyme Assay at 1 mM ATP (JAK3). Format: biochemical. To be noted: Caliper assay at 1 mM ATP.
The target of the next assay is TYK2 (Homo sapiens (Human), UniProt P29597). The experiment in a line: JAK Caliper Enzyme Assay at 1 mM ATP (TYK2). The assay is classed as biochemical. To be noted: Caliper assay at 1 mM ATP.
For assay [1], the system named is rhIFNγ stimulated STAT-3 phosphorylation in the A549 human epithelial cell line. Kind of assay: A549 Cell Assay: Inhibition of pSTAT3. Format: cell-based. To be noted: Homo sapiens; A549 cells. In outline: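 A549 cells cultured 18 h were preincubated 1 h at 37° C with compound (0.3 nM to 10 μM, 0.1% DMSO) in DMEM with 0.2% BSA, then stimulated with 20 ng/mL rhIFNγ for 30 min. pSTAT3 Tyr705 in the lysates was measured by MSD immunoassay and expressed as percent inhibition.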

Chain of TYK2 (P29597 whole entry): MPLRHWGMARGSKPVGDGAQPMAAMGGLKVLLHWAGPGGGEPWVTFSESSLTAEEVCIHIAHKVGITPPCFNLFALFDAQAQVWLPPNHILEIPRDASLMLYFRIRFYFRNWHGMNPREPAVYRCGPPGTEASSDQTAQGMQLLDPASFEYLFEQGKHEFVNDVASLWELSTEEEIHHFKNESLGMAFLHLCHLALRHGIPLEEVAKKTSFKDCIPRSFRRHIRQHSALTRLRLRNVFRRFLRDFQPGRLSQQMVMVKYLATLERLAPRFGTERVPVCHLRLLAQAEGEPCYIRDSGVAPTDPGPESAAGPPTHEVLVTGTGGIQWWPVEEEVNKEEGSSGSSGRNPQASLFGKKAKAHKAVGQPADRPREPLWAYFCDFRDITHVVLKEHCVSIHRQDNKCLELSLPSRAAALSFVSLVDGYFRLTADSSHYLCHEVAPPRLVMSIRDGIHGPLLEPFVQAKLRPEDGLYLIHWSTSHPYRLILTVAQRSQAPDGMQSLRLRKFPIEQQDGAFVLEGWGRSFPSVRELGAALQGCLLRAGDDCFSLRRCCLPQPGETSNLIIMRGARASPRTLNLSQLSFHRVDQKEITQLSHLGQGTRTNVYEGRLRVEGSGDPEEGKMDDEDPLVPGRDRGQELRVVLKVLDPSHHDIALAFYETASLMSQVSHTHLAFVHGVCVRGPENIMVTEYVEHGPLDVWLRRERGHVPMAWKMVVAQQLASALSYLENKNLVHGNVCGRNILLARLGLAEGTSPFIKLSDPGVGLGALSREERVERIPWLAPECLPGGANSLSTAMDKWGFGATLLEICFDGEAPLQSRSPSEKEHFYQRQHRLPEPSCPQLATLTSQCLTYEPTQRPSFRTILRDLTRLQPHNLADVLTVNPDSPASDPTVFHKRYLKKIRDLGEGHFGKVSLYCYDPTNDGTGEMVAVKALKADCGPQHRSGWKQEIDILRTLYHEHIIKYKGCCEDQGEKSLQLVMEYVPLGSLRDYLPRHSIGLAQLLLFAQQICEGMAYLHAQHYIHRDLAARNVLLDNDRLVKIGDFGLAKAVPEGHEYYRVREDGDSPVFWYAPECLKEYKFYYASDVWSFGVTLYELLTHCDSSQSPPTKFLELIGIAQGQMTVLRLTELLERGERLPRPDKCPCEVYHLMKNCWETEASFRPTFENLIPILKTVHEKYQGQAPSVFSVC
Chain of JAK2 (O60674 whole entry): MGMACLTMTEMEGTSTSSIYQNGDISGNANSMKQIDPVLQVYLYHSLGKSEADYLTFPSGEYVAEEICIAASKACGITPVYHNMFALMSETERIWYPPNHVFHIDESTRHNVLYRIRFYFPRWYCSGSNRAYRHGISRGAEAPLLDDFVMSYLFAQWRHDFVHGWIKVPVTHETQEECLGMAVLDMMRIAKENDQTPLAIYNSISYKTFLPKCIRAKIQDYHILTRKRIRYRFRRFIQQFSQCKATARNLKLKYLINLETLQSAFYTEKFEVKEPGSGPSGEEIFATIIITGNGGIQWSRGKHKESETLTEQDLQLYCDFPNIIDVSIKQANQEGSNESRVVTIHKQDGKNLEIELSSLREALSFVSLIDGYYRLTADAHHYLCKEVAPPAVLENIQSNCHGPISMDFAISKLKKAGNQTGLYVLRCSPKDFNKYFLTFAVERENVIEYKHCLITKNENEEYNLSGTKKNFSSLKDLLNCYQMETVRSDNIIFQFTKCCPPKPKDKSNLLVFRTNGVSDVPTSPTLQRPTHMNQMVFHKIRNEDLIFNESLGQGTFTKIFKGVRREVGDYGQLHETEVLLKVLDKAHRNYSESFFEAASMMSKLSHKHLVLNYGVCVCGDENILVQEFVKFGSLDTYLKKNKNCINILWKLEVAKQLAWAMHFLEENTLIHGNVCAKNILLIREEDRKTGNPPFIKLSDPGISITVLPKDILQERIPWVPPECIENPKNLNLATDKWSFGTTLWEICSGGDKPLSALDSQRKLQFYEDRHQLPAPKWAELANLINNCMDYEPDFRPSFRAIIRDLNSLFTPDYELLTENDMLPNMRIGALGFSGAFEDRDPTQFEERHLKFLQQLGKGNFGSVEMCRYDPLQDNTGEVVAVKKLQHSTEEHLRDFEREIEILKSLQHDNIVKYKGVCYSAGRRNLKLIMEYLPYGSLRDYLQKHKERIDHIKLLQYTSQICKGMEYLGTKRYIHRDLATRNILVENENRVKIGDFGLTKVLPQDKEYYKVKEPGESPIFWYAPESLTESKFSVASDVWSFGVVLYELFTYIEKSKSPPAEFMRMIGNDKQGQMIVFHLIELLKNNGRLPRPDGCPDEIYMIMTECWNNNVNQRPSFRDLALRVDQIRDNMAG
Chain of JAK3 (P52333 whole entry): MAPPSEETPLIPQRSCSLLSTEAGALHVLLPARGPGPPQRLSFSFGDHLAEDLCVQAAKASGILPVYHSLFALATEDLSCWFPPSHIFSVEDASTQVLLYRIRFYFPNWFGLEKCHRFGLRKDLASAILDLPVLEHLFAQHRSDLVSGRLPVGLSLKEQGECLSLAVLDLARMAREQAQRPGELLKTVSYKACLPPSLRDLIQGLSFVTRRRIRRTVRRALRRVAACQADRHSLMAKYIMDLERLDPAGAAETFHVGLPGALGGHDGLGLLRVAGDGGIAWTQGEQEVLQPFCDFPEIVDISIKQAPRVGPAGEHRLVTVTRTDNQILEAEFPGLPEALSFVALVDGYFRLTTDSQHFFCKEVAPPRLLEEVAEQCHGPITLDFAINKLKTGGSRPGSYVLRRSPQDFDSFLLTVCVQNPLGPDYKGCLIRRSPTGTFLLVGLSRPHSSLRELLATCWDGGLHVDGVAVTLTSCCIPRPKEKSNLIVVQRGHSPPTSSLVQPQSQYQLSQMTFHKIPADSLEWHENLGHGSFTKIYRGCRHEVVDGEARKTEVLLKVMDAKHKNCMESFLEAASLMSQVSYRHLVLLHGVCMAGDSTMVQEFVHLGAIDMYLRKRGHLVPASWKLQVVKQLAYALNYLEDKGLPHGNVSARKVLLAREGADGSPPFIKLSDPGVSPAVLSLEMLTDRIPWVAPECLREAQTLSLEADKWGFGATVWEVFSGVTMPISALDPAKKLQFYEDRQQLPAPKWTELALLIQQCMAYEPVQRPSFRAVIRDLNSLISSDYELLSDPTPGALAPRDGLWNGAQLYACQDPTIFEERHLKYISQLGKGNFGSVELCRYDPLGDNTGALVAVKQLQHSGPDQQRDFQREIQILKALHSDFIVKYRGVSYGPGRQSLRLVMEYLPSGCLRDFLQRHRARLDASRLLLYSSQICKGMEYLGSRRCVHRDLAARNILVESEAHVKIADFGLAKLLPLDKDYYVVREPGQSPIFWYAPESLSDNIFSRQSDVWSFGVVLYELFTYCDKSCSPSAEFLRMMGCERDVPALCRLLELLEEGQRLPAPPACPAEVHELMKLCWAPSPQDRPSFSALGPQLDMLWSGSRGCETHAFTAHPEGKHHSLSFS
Chain of JAK1 (P23458 whole entry): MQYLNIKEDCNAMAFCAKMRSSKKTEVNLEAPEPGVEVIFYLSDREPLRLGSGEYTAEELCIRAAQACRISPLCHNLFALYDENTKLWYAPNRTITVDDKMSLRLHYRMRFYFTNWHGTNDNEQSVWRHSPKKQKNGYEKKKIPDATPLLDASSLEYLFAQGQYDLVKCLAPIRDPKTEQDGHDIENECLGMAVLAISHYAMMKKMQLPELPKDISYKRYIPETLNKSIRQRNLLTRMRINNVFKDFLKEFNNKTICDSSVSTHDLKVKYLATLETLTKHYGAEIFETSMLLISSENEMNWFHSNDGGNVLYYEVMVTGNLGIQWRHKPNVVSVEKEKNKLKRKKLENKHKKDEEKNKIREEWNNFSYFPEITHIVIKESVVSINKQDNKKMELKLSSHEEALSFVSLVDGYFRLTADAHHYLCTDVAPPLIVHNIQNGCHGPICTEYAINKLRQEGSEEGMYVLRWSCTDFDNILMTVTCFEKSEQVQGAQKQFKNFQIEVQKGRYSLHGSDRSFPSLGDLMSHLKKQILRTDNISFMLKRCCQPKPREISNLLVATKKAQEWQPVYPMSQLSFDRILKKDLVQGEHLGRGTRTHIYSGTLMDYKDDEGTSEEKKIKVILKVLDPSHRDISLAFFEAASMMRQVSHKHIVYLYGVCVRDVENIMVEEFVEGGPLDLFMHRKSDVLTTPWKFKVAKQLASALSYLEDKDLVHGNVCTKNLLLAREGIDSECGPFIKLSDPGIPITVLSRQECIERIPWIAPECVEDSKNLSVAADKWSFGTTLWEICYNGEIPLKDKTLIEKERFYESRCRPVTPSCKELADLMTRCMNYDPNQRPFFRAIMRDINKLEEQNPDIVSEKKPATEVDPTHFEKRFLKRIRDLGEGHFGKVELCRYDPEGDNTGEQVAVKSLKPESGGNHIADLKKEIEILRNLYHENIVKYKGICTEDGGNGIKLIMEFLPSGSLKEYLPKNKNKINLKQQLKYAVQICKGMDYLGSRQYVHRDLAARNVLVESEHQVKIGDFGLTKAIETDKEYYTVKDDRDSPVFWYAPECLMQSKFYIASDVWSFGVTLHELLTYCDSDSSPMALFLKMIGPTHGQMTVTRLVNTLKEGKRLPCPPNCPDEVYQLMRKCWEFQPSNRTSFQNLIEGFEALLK

What is called IC50 is the concentration at which inhibition is half-maximal. `CCc1cc(O)c(F)cc1-c1cc2[nH]nc(C(=O)NC)c2c(NCc2ccccc2N(CC)S(C)(=O)=O)n1` [Example 9, 6-(2-ethyl-5-fluoro-4-hydroxyphenyl)-4-({2-[ethyl(methylsulfonyl)amino]benzyl}amino)-N-methyl-1H-pyrazolo[4,3-c]pyridine-3-carboxamide]: the concentration for half-maximal inhibition (IC50) at JAK1 worked out at 1.7 nM; against JAK2 it was 10.8 nM; against JAK3, 60 nM; on TYK2 it was 7.2 nM; in assay [1] it was 14.9 nM.
On the same counts, the results for `CCc1cc(O)c(F)cc1-c1cc2[nH]nc(C(=O)NC)c2c(NCC2CCCC2)n1` [Example 10, 4-[(cyclopentylmethyl)amino]-6-(2-ethyl-5-fluoro-4-hydroxyphenyl)-N-methyl-1H-pyrazolo[4,3-c]pyridine-3-carboxamide] are 4.7 nM, 19 nM, 93.1 nM, 17.9 nM and 26 nM.
With `CCN(c1ccccc1CNc1nc(-c2cc(F)c(O)cc2CC(F)(F)F)cc2[nH]nc(C(=O)NC)c12)S(C)(=O)=O` [Example 12, 4-({2-[ethyl(methylsulfonyl)amino]benzyl}amino)-6-[5-fluoro-4-hydroxy-2-(2,2,2-trifluoroethyl)phenyl]-N-methyl-1H-pyrazolo[4,3-c]pyridine-3-carboxamide], the 50% inhibitory concentration (IC50) at JAK1 came to 6.4 nM; against JAK2, 31.5 nM; at JAK3, 121 nM; on TYK2 it was 24.8 nM; in assay [1] it was 44.9 nM.
As to `CCS(=O)(=O)N(C)c1ccccc1CNc1nc(-c2cc(F)c(O)cc2CC(F)(F)F)cc2[nH]nc(C(=O)NC)c12` [Example 13, 4-({2-[(ethylsulfonyl)(methyl)amino]benzyl}amino)-6-[5-fluoro-4-hydroxy-2-(2,2,2-trifluoroethyl)phenyl]-N-methyl-1H-pyrazolo[4,3-c]pyridine-3-carboxamide], the 50% inhibitory concentration (IC50) on JAK1 worked out at 5.3 nM; at JAK2 it was 26.6 nM; against JAK3, 118 nM; against TYK2, 35.7 nM; in assay [1], 96.7 nM.
Taken in the same sequence, the figures for `CNC(=O)c1n[nH]c2cc(-c3cc(F)c(O)cc3CC(F)(F)F)nc(NCc3cc(F)ccc3N(C)S(C)(=O)=O)c12` [Example 14, 6-[5-fluoro-4-hydroxy-2-(2,2,2-trifluoroethyl)phenyl]-4-({5-fluoro-2-[methyl(methylsulfonyl)amino]benzyl}amino)-N-methyl-1H-pyrazolo[4,3-c]pyridine-3-carboxamide] were 4.2 nM, 20.5 nM, 99.7 nM, 43.2 nM and 20.7 nM.
With `CCc1cc(O)c(F)cc1-c1cc2[nH]nc(C(=O)NC)c2c(NCc2cc(C)ccc2N(C)S(C)(=O)=O)n1` [Example 21, 6-(2-ethyl-5-fluoro-4-hydroxyphenyl)-N-methyl-4-({5-methyl-2-[methyl(methylsulfonyl)amino]benzyl}amino)-1H-pyrazolo[4,3-c]pyridine-3-carboxamide], the half-inhibitory concentration (IC50) against JAK1 is 2.7 nM; against JAK2 it was 13.2 nM; against JAK3, 67.9 nM; against TYK2, 11.4 nM; in assay [1], 35.6 nM.
Turning to `CCc1cc(O)c(F)cc1-c1cc2[nH]nc(C(=O)NC)c2c(NCc2ccccc2N(C)S(=O)(=O)c2ccccc2)n1` [Example 22, 6-(2-ethyl-5-fluoro-4-hydroxyphenyl)-N-methyl-4-({2-[methyl(phenylsulfonyl)amino]benzyl}amino)-1H-pyrazolo[4,3-c]pyridine-3-carboxamide], the IC50 at JAK1 stood at 17.5 nM; against JAK2, 81.3 nM; against JAK3 it was 359 nM; against TYK2, 59.1 nM; in assay [1], 52.8 nM.

The values are drawn from patent US10022376B2 (Pfizer Inc., priority 2014, dated 2018).
